Measured values as given in patent US8372342B2, “Apparatus for monitoring thrombus formation and method of monitoring thrombus formation” (Fujimori Kogyo Co., Ltd., priority 2005, dated 2013).

Tests used:
[1] = system: plasma coagulation (APTT); assay: APTT measurement on plasma (Reference Experiment 2); type: biochemical; conditions: plasma added with 500-μM exosite I recognizing thrombin aptamer
Experimental: The measurement of APTT was carried out on […] of plasma with respect to each of sample A added with […] of physiological saline solution, sample B added with […] of 500-μM exosite I recognizing thrombin aptamer, and sample C added with 10 μl of a solution containing 500-μM exosite I recognizing thrombin aptamer and 1500-μM exosite I recognizing thrombin aptamer antisense DNA. The sample A was 44 seconds, the sample B was 2 minutes or more, and the sample C was 45 seconds.

[2] = system: blood coagulation; assay: Time taken for coagulation of blood in Eppendorf tubes (Reference Experiment 1); type: cell-based
Experimental: The blood immediately after blood sampling, the blood prepared by adding a volume of one tenth of 300 μg/ml of a maize-derived trypsin inhibitor to the first blood, and the blood prepared by adding a thrombin aptamer that recognizes exosite I to the second blood so as to be 5 μM in concentration were provided. Then, for these three kinds of the blood, the time taken for coagulation were measured in Eppendorf tubes (made of polypropylene). The sample was reversed up side down every one minute and the flowability thereof was confirmed.
Further, when 5 μM of a thrombin aptamer that recognizes exosite I and 5 μM of a thrombin aptamer that recognizes exosite II were used in combination, blood coagulation was not confirmed even after 3 hours even in the case of the blood free of the trypsin inhibitor.

[3] = system: thrombus formation in citrate-treated blood; assay: Thrombus formation monitoring in a glass tube chamber with collagen-immersed silk as thrombus inducing material; type: cell-based; conditions: 0.1 mg/ml added to solution A; flown for 15 minutes
Experimental: After flowing the solution A in the syringe 20 at 3 ml/min and the solution B in the syringe 21 at 0.3 ml/min for 15 minutes, the thrombus formation chamber 10 was detached and the inside thereof was then washed with a physiological saline solution.

[4] = system: blood coagulation; assay: Thromboelastogram waveform of coagulation (Reference Experiment 3); type: cell-based; conditions: aptamers to exosite I and II; stored at room temperature for 15 minutes
Experimental: FIG. 11(A) is a result obtained by analyzing a thromboelastogram waveform of coagulation by adding 10 μM of each of aptamers for exosite I and exosite II to the blood, and after storing the blood at room temperature for 15 minutes, adding 40 μM of each of antisense DNAs of both aptamer. FIG. 11(B) illustrates the thromboelastogram waveform of the blood just after blood sampling.
FIG. 11(A) is an analysis of a waveform of coagulation with thromboelastogram by storing the blood added with […] of aptamers to exosite I and exosite II at room temperature for 15 minutes, and then by adding 40 μM of antisense DNAs of both aptamers. FIG. 11(B) is a thromboelastogram waveform of the blood just after blood sampling.

[5] = system: thrombus formation in citrate-treated blood; assay: Thrombus formation monitoring in the FIG. 1 flow apparatus, collagen-coated constriction portion, citrate-treated blood released with CaCl2; type: cell-based; conditions: 1 mg/ml added to solution A
Experimental: An apparatus for monitoring thrombus formation illustrated in FIG. 1 is used to fill a syringe 20 with 50 ml of a citrate-treated blood (solution A) in which 9 parts by volume of the blood immediately after the blood sample is mixed with 1 part by volume of 3.2% sodium citrate, and to fill a syringe 21 with 10 ml of 0.2M CaCl2 (solution B). The syringes 20 and 21 are connected to transparent nylon tubes (inlet tube 11 and drug tube 12) with an inner diameter of 3 mm. Both tubes are joined together at a T-shaped joint (cheese) and then connected to a polycarbonate thrombus formation chamber 10 of 3 mm in inner diameter and 1 cm in length through a single nylon tube (inlet tube 11) of 3 mm in inner diameter and 3 cm in length. The thrombus formation chamber 10 itself is constructed as a removable cassette. The joint portion between the cassette and the nylon tube (inlet tube 11) is made liquid-tight via an O-ring made of silicon rubber. A glass member is fixed on the inside of the cassette by an epoxy-based adhesive, thereby forming a constriction portion 14. The constriction portion 14 is designed so that the most narrowed site of the constriction portion 14 may have an inner diameter (the maximum gap between the constriction portion 14 and the inner wall) of 1.5 mm. In addition, the thrombus formation chamber 10 is connected liquid-tight with a tube as a discharge tube 13 having the same diameter and formed of the same material through an O-ring made of silicon rubber, and thus a thrombus monitoring apparatus 1 as illustrated in FIG. 1 is manufactured. Note that flange-type pressure gauges 40 and 41 are mounted on parts of the inlet tube 11 and the discharge tube 13 near the thrombus formation chamber 10 via joints (cheeses), respectively. […]
An apparatus for monitoring thrombus formation 1 is prepared and thrombus formation is then monitored in a manner similar to Example 1, except that the solution A of Example 1 is further added with an unfractionated heparin (prepared from pig mucous) at a concentration of 1 mg/ml.

[6] = system: thrombus formation in whole blood; assay: Microchip pressure measurement, collagen/tissue thromboplastin chamber, blood anticoagulated with trypsin inhibitor and thrombin aptamers, released with antisense DNAs (Example 17 system); type: cell-based
Excerpt: A microchip 300, where the substrate and the cover of the microchip shown in FIG. 9(B) and FIG. 9(C), respectively, made of the same materials as those of Example 7 were pressure-bonded, was used. The microchip 300 comprises a blood coagulation inhibitor inlet tube 322 and a discharge tube 313 which were connected to the substrate 100 as in the case with the discharge tube of Example 7. However, the grooves of the microchip 300 of FIG. 9 are all formed of 200 μm in depth. […] A solution was prepared such that 1 vial of the Sysmex Corporation PT reagent (tissue thromboplastin) was dissolved in 1 ml of purified water and then dialyzed in purified water, the dialyzed product in purified water was mixed with collagen type I (manufactured by Nitta Gelatin Inc.) at a ratio of 1:1. After that, the applied portion was dried at 4° C. in air and thrombus formation chamber 311 was covered, which was used as a thrombus inducing material 315. The blood was collected after the addition of an anticoagulation treatment agent such that the final concentrations of the respective components in the syringe were 25 μg/ml for maize-derived trypsin inhibitor, 10 μM for exosite I thrombin aptamer, 10 μM for exosite II thrombin aptarner (5′-[…]-3′: SEQ D NO. 3). Immediately before monitoring, the blood thus collected was added with antisense DNAs with respect to thrombin aptamers of exosite I and exosite II so that each of them would reach to a concentration of 40 μM. Then, a syringe (1 ml syringe, manufactured by Terumo Corporation) was filled with the blood and provided as the sample syringe 320 shown in FIG. 9. The My Flow (manufactured by Arbiotec Co., Ltd), which is a micro-feeding pump capable of monitoring the inner pressure of a liquid-feeding pump, was connected to a pressure inlet tube 317 shown in FIG. 9. Mineral oil was pressed into the microchip 300 from the top of the syringe 320 and the blood was pushed out into the microchip 300 at a flow rate of 50 μl/min, while the pressure exerted on the sample syringe 320 was monitored. […]

[7] = system: thrombus formation in whole blood; assay: Microchip pressure measurement, blood anticoagulated with citric acid and maize-derived trypsin inhibitor, released with calcium chloride (Example 20 system); type: cell-based; conditions: 2 μg/ml
Experimental: The blood sampling was carried out with the addition of 3.2% citric acid so that the ratio of citric acid and the blood be 1:9. Further, the blood was added with a maize-derived trypsin inhibitor at a concentration of 25 μg/ml to carry out an anticoagulation reaction. Immediately after adding calcium chloride to the anticoagulated blood so that it should reach 15 mM with respect to the anticoagulated blood at the time of monitoring thrombus formation, the blood was added to a syringe (1-ml syringe, manufactured by Terumo Corporation), followed by inflowing the blood into the same microchip as that of Example 17 at a flow rate of 40 μl/min. Subsequently, a change in pressure was measured using the same system as that of Example 17. The pressure began to rise 15 minutes after starting the pressure measurement and it rose up to about 60 kPa.
The blood sampling was carried out with the addition of an anticoagulation treatment agent in manner similar to Example 20. Subsequently, the same procedure as that of Example 20 was carried out, except that ReoPro (LILLY Co., Ltd.) was added at a concentration of 2 μg/ml. The measurement of pressure was then performed. The pressure began to rise 20 minutes after starting the pressure measurement and it rose up to about 15 kPa after 25 minutes (FIG. 15).

**Q.** How did the APTT [1] turn out when “5′-GGTTGGTGTGGTTGG-3′ (listed as DNA, chemistry not given here) [thrombin aptamer]” was run?
**A.** ≥ 2 min

**Q.** And the coagulation time ([2]; 5 μM exosite I thrombin aptamer added to the blood already containing trypsin inhibitor)?
**A.** 62 min

**Q.** Which “presence of thrombus in glass tube by visual observation after washing” value [3] does the source give for `CC1CNc2c(cccc2S(=O)(=O)N[C@@H](CCCNC(=N)N)C(=O)N2CC[C@@H](C)C[C@@H]2C(=O)O)C1` (stereo partly shown) [Argatroban] here?
**A.** did not confirm the presence of thrombus

**Q.** For “thrombin aptamer that recognizes exosite I and thrombin aptamer that recognizes exosite II: combination of exosite I aptamer (SEQ ID NO. 1) and exosite II aptamer 5′-AGTCCGTGGTAGGGCAGGTTGGGGTGACT-3′ (SEQ ID NO. 3) (chain 1 GGTTGGTGTGGTTGG; listed as DNA, chemistry not given here)”, which “effect on blood storage / coagulation by thromboelastogram” value [4] is on record?
**A.** allow the blood to be stored

**Q.** What about the “time without confirmed blood coagulation” value ([2]; 5 μM of each aptamer in combination, blood free of the trypsin inhibitor) of the same molecule?
**A.** > 3 h

**Q.** With unfractionated heparin as the molecule, how does the “thrombus in the thrombus formation chamber by visual observation after washing” value [5] read?
**A.** thrombus cannot be found

**Q.** And the “decrease in blood flow discharged from the discharge tube” value ([5]; solutions flown for 10 minutes)?
**A.** no decrease in blood flow

**Q.** And the “pressure difference between inlet tube and discharge tube pressure gauges” value ([5]; solutions flown for 10 minutes)?
**A.** no pressure difference

**Q.** And the “pressure rose up to” value ([6]; 1 unit/ml, flow rate 50 μl/min)?
**A.** about 10 kPa

**Q.** And the “time after starting the measurement at which pressure began to rise” value ([6]; 1 unit/ml, flow rate 50 μl/min)?
**A.** 13 min

B1: ReoPro: ReoPro (LILLY Co., Ltd.) (antibody, chains of the INN, looked up, V domains shown)
VH: EVQLQQSGTVLARPGASVKMSCEASGYTFTNYWMHWVKQRPGQGLEWIGAIYPGNSDTSYIQKFKGKAKLTAVTSTTSVYMELSSLTNEDSAVYYCTLYDGYYVFAYWGQGTLVTVSA
VL: EIVLTQSPVTLSVTPGDSVSLSCRASRDISNNLHWFQQTSHESPRLLIKYASQSMSGIPSRFSGSGSGTDFTLSINSVETEDFGMYFCQQTNSWPYTFGGGTKLEIK
modifications: Fab
**Q.** How did the “pressure rose up to” value ([7]; after 25 minutes) turn out when B1 was run?
**A.** about 15 kPa

**Q.** What about the “time after starting the pressure measurement at which pressure began to rise” value ([7]; flow rate 40 μl/min) of the same molecule?
**A.** 20 min

**Q.** And the increase in pressure ([6]; 50 μg/ml, measurement for 18 minutes)?
**A.** could not be confirmed
